Experimental data taken from patent US12043601B2, “N-substituted-1H-1,2,4-triazole-3-carboxamides, analogues thereof, and methods of treatment using same” (THE REGENTS OF THE UNIVERSITY OF COLORADO, priority 2018, dated 2024).
In brackets after ≈: the same amount, converted by molar mass.

How the values were obtained:
DksA [1] = target: T1, DksA (Salmonella typhimurium, UniProt P0A1G5); assay: DksA-mediated repression of rpsM in vitro transcription (IVT, qRT-PCR); type: biochemical
Procedure: (§1) To measure the potency of a compound in inhibition of DksA biological function, rpsMtranscripts in vitro was determined by non-radioactive in vitro transcription reactions with qPCR analysis with divergent compounds. Briefly, 5 nM pTIM-rpsMplasmid was mixed with […] of compounds in 10 μl reaction buffer (40 mM HEPES [pH 7.4], 2 mM MgCl2, 60 mM potassium glutamate, 0.05% NP-40, 200 μM ATP, 200 μM GTP, 200 μM CTP, 200 μM UTP, and 5 nM E. coli RNA polymerase holoenzyme (NEB, Ipswich, MA) with 5 μM DksA. The in vitro transcription was carried out at 37° C. for 10 min, and then terminated at 70° C. for 10 min. To remove template DNA after treated with DNaseI, DNA-free DNA Removal kit (ThermoFisher) was used according to manufacturer's direction. The resulting materials were used as templates to generate cDNA with 100 U MMLV reverse transcriptase (Promega), 0.45 μM gene specific primer, and 20 U RNase inhibitor (Promega). The amount of cDNA synthesized for 1 h at 42° C. was quantified by real-time PCR (qRT-PCR). The copy number of specific transcripts was calculated to the standard curve generated with known gene copy concentrations. The IC50 is the concentration at which the curve passes through the 50% inhibition level. Standard deviation was calculated from 3 independent experiments.
The compounds obtained in this screen were further analyzed for binding to the acidic pocket at the tip of DksA coiled-coil domain using the computer search program Dock. The analysis identified over 400 compounds. A panel of 40 compounds was selected from the top hits based on free energy binding scores. These compounds were investigated using the computer modeling program O. Two additional criteria were applied in order to narrow down the list of candidates: First, the compounds needed to fit deep into the pocket without any clashes; and second, the compounds bound to DksA should have minimal exposed moieties. The compounds selected were further refined according to energy minimization as calculated by the CNS program. 23 compounds were obtained from MolPort and they were tested for their ability to interfere with DksA in a high throughput screen that combined in vitro transcription with highly specific and quantitative qRT-PCR. Five of these compounds, including N-(3,4-dimethoxyphenyl)-1H-1,2,4-triazole-3-carboxamide (1), prevented DksA-mediated repression of rpsM in vitro transcription to some degree. […] Without intending to be limited to any particular theory, the effect that 1 has on DksA-dependent rpsM or hisG gene transcription is potentially due to differences in promoter activity.
(§2) The compounds were initially tested at 0.1 μM and 1 μM using as a target the promoter of the livJ gene that encodes a transporter of branch-chain amino acids (Table 4).

Compound solubility = type: physicochemical; conditions: for Compound Solubility, 1 μM: solvent at 1 μM; for Compound Solubility, 10 μM: solvent at 10 μM; for Compound Solubility, 100 μM: solvent at 100 μM; for Compound Solubility, 1 mM: solvent at 1 mM; for Compound Solubility, 10 mM: solvent at 10 mM; for Compound Solubility, 16 mg/ml: solvent at 16 mg/ml
Salmonella strain 14028s = assay: Minimum inhibitory concentration in EG minimal media; type: cell-based, Salmonella Typhimurium; conditions: 18 h; for Growth in EG at concentration tested 1 μg/ml / Growth in EG at concentration tested 2 μg/ml / Growth in EG at concentration tested 4 μg/ml / Growth in EG at concentration tested 8 μg/ml / Growth in EG at concentration tested 16 μg/ml / Growth in EG at concentration tested 32 μg/ml: EG minimal media, 37° C.; for MIC: Salmonella, 14028S
Procedure: DksA controls transcription of metabolic and virulence genes, allowing bacteria to both grow in minimum media and cause disease. Inhibition of bacterial growth in EG minimum media was used as an easy and reliable proxy of the DksA-dependent regulation of metabolism.
In a non-limiting example, wild-type Salmonella strain 14028s was grown overnight (18.5 h), and then diluted in EG minimal media to a density of about 10^5 CFU/mL. […] Each test tube was incubated at 37° C. with shaking for 18 h and bacterial growth was evaluated. The MIC value was determined as the lowest concentration of compound that inhibited growth.

DksA [2] = target: T1, DksA; assay: DksA-dependent livJ in vitro transcription; type: biochemical; conditions: livJ promoter; for IVT: concentration showing activity
Procedure: as §1, §2

T1 sequence (P0A1G5 whole entry): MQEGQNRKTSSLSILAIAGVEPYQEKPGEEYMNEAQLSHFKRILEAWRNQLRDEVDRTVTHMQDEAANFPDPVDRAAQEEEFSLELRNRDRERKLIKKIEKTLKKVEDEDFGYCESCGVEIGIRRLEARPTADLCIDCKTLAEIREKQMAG

Row | SMILES | IC50 (DksA [1]) [nM] | Compound Solubility, 1 μM (Compound solubility) | Compound Solubility, 10 μM (Compound solubility) | Compound Solubility, 100 μM (Compound solubility) | Compound Solubility, 1 mM (Compound solubility) | Compound Solubility, 10 mM (Compound solubility) | Compound Solubility, 16 mg/ml (Compound solubility) | Growth in EG at concentration tested 1 μg/ml (Salmonella strain 14028s) | Growth in EG at concentration tested 2 μg/ml (Salmonella strain 14028s) | Growth in EG at concentration tested 4 μg/ml (Salmonella strain 14028s) | MIC (Salmonella strain 14028s) [µg/mL] | In vitro transcription assay result, 0.1 μM (DksA [2]) | In vitro transcription assay result, 1 μM (DksA [2]) | IVT (DksA [2]) [µM] | Growth in EG at concentration tested 8 μg/ml (Salmonella strain 14028s) | Growth in EG at concentration tested 16 μg/ml (Salmonella strain 14028s) | Growth in EG at concentration tested 32 μg/ml (Salmonella strain 14028s)
1 | CCCCNC(=O)c1nc[nH]n1 [Compound 12, N-butyl-1H-1,2,4-triazole-3-carboxamide] | 73 | water | water | water | water | water | DMSO | + | + | + | 8 (≈ 47.6 µM) | no induction | no induction | 0.1 | – | – | –
2 | O=C(Nc1cc(Cl)cc(Cl)c1)c1nc[nH]n1 [Compound 14, N-(3,5-dichlorophenyl)-1H-1,2,4-triazole-3-carboxamide] | 71 | water | water | water | DMSO | DMSO | DMSO | + | + | + | 8 (≈ 31.1 µM) | no induction | no induction | 0.1 | – | – | –
3 | O=C(NCCCc1ccccc1)c1nc[nH]n1 [Compound 15, N-(3-phenylpropyl)-1H-1,2,4-triazole-3-carboxamide] | 51 | water | water | water | water | water | DMSO | + | + | + | 16 (≈ 69.5 µM) | no induction | no induction | 0.1 | + | – | –
4 | O=C(NCCCCc1ccccc1)c1nc[nH]n1 [Compound 16, N-(4-phenylbutyl)-1H-1,2,4-triazole-3-carboxamide] | 91 | water | water | water | water | DMSO | DMSO | + | + | + | 16 (≈ 65.5 µM) | no induction | good repression | 0.1 | – | – | –
5 | C[C@@H](NC(=O)c1nc[nH]n1)c1ccccc1 [Compound 17, (R)-N-(1-phenylethyl)-1H-1,2,4-triazole-3-carboxamide] | – | water | water | water | water | water | DMSO | + | + | + | – | no induction | no induction | 0.1 | + | + | +
6 | C[C@H](NC(=O)c1nc[nH]n1)c1ccccc1 [Compound 18, (S)-N-(1-phenylethyl)-1H-1,2,4-triazole-3-carboxamide] | – | water | water | water | water | water | DMSO | + | + | + | – | no induction | no induction | 0.1 | + | + | +
7 | O=C(NCCc1c[nH]c2ccccc12)c1nc[nH]n1 [Compound 19, N-(2-(1H-indol-3-yl)ethyl)-1H-1,2,4-triazole-3-carboxamide] | 75 | water | water | water | water | water | DMSO | + | + | + | 16 (≈ 62.7 µM) | no induction | no induction | 0.1 | + | – | –
8 | O=C(NCCc1ccccc1)c1nc[nH]n1 [Compound 20, N-phenethyl-1H-1,2,4-triazole-3-carboxamide] | 90 | water | water | water | water | water | DMSO | + | + | + | 8 (≈ 37 µM) | no induction | no induction | 0.1 | – | – | –
9 | COc1ccc([C@@H](C)NC(=O)c2nc[nH]n2)cc1 [Compound 22, (R)-N-(1-(4-methoxyphenyl)ethyl)-1H-1,2,4-triazole-3-carboxamide] | – | water | water | water | water | water | DMSO | + | + | + | – | no induction | no induction | 0.1 | + | + | +
